ChEMBL document CHEMBL5604063, “ASAP - DENV-2 NS2B-NS3 protease fluorescence dose response” (2024)
Values joined by “and” are separate entries in the source; they are usually repeats but may differ in a detail not shown here. Identical values can stand only once.

Legend:
Genome polyprotein [1] = biological target: T1, Genome polyprotein (dengue virus type 2, UniProt P29990); type: functional, Thailand/16681/1984
Genome polyprotein [2] = biological target: T1, Genome polyprotein; type: functional, Thailand/16681/1984; remark: listed apart in the source

T1 sequence (P29990 1346-1475 limits assumed): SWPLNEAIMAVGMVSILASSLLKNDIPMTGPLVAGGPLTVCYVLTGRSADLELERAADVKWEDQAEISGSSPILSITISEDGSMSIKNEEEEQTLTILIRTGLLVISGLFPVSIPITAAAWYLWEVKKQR
T1 sequence (P29990 1476-2093 limits assumed): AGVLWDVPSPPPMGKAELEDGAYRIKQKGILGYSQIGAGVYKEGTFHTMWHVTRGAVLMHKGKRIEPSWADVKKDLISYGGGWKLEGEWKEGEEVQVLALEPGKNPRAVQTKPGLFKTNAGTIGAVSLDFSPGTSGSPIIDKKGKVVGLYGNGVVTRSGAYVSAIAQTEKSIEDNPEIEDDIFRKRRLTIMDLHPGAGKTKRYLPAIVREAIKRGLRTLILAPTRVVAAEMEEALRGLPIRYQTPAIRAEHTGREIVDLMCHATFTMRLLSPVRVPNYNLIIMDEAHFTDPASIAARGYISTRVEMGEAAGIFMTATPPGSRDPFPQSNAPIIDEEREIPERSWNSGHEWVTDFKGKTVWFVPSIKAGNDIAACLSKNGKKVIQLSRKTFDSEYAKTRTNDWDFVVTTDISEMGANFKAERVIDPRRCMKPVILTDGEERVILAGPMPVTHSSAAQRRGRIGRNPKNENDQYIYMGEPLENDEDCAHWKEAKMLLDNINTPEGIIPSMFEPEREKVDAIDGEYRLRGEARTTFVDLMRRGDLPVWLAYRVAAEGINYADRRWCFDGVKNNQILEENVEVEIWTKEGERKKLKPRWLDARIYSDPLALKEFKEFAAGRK

Row | Structure (SMILES) | IC50 (Genome polyprotein [1]) | IC50 (Genome polyprotein [2]) [µM]
1 | Cn1ccc(COc2ccc([C@@H](NC(=O)OCc3ccccc3)C(=O)Nc3cccc(CN)c3)cc2)n1 | > 99.5 µM | > 100
2 | Cn1nc2c(c1NC(=O)c1cc(Cl)cc(NC(=O)OCc3ccccc3)c1)CCNC2 | > 99.5 µM | > 100
3 | NCc1cccc(NC(=O)[C@@H](NC(=O)OCc2ccccc2)C2CCN(C(=O)c3cscn3)CC2)c1 | > 99.5 µM | > 100
4 | NCc1cccc(NC(=O)[C@@H](NC(=O)OCc2ccccc2)c2ccc(OCC3CCOCC3)cc2)c1 | 86 µM | > 100
5 | NCc1cccc(NC(=O)c2cc(Cl)ccc2Oc2cccc(Cl)c2)c1 | > 99.5 µM | > 100
6 | COc1c(Cl)cc(Cl)cc1C(=O)Nc1cccc(CN)c1 | > 99.5 µM | > 100
7 | O=C(Cn1ccnc(N2CC[C@H](CO)C2)c1=O)NCc1ccsc1 | > 99.5 µM | > 100
8 | C=CC[C@]1(NC(=O)c2cc(Cl)cc(NC(=O)OCc3ccccc3)c2)CCNC1 | > 99.5 µM | > 100
9 | NCc1cccc(NS(=O)(=O)c2cc(Cl)cc(NC(=O)OCc3ccccc3)c2)c1 | > 99.5 µM | > 100
10 | NCCCc1ccc(F)c(NC(=O)c2cc(Cl)cc(NC(=O)OCc3ccccc3)c2)c1 | 27.8 µM | 91.1
11 | CC(C)OC(=O)Nc1cc(Cl)cc(C(=O)Nc2cccc(CN)c2)c1 | > 99.5 µM | > 100
12 | O=C(Nc1cc(Cl)cc(C(=O)NC[C@@H]2CNCCC2(F)F)c1)OCc1ccccc1 | > 99.5 µM | > 100
13 | NC[C@H]1C[C@@H](CNC(=O)c2cc(Cl)cc(NC(=O)OCc3ccccc3)c2)CCO1 | > 99.5 µM | > 100
14 | CCc1[nH]c2ccccc2c1CN1CCC(c2cscn2)CC1 | > 99.5 µM | > 100
15 | O=C(Nc1cc(Cl)cc(C(=O)NC[C@H]2CC3(CNC3)CO2)c1)OCc1ccccc1 | > 99.5 µM | > 100
16 | C[C@@]1(CNC(=O)c2cc(Cl)cc(NC(=O)OCc3ccccc3)c2)CNCCOC1 | > 99.5 µM | > 100

Row | Structure (SMILES) | IC50 (Genome polyprotein [1]) | IC50 (Genome polyprotein [2]) [µM]
17 | O=C(Cn1ccnc(N2CC[C@H](CO)C2)c1=O)NCc1cccs1 | > 99.5 µM | > 100
18 | O=C(Nc1cc(Cl)cc(C(=O)NC[C@@]23CC[C@H](CNC2)C3)c1)OCc1ccccc1 | > 99.5 µM | > 100
19 | NC[C@H]1C[C@](F)(CNC(=O)c2cc(Cl)cc(NC(=O)OCc3ccccc3)c2)C1 | > 99.5 µM | > 100
20 | NC[C@]12CC[C@](NC(=O)c3cc(Cl)cc(NC(=O)OCc4ccccc4)c3)(CO1)C2 | > 99.5 µM | > 100
21 | Cc1cccc(CNc2ccc(Cl)cc2C(=O)Nc2cccc(CN)c2)n1 | > 99.5 µM | > 100
22 | NCc1cccc(NC(=O)[C@@H](NC(=O)OCc2ccccc2)C2CCN(Cc3ccncc3)CC2)c1 | > 99.5 µM | > 100
23 | O=C(Nc1cc(Cl)cc(C(=O)NC[C@H]2CCNC3(CC3)C2)c1)OCc1ccccc1 | > 99.5 µM | > 100
24 | Cc1ncc(COc2ccc([C@@H](NC(=O)OCc3ccccc3)C(=O)Nc3cccc(CN)c3)cc2)o1 | > 99.5 µM | > 100
25 | O=C(Nc1cc(Cl)cc(C(=O)N[C@@]23CCCCC[C@@H]2NCC3)c1)OCc1ccccc1 | > 99.5 µM | > 100
26 | N[C@H]1CC[C@H](NC(=O)c2cc(Cl)cc(NC(=O)OCc3ccccc3)c2)C1 | > 99.5 µM | > 100
27 | Cc1nccn1-c1ccc(Cl)cc1C(=O)Nc1cccc(CN)c1 | > 99.5 µM | > 100
28 | O=C(Nc1cc(Cl)cc(C(=O)NC[C@H]2CNC3(CC3)CO2)c1)OCc1ccccc1 | > 99.5 µM | > 100
29 | O=C(Nc1cc(Cl)cc(C(=O)Nc2nccn2C2CNC2)c1)OCc1ccccc1 | > 99.5 µM | > 100
30 | CCc1ccc([C@@H](CC(=O)Nc2cccc(CN)c2)NC(=O)OCc2ccccc2)cc1Br | 16.4 µM and 22.3 µM | 85.1
31 | Cn1nc2c(c1NC(=O)c1cc(Cl)cc(NC(=O)OCc3ccccc3)c1)CNCC2 | 60.7 µM | > 100
32 | NC[C@]1(F)C[C@@H](NC(=O)c2cc(Cl)cc(NC(=O)OCc3ccccc3)c2)C1 | 66.6 µM | > 100
